According to patent US9801880B2, “Use of kinase inhibitors” (BerGenBio AS, priority 2013, dated 2017):

Experiments:
Flt3 (D835H) = target: T1, Flt3 (D835H) (Homo sapiens, UniProt P36888, D835H); assay: KinomeScan competition binding assay
T1 construct: purchased DiscoveRx Corporation (KinomeScan service)
Source text: (§1) Detailed assay methodologies can be found in the relevant references cited herein, or in the KinaseProfiler Service Assay Protocols (v54, 2011) available from EMD Millipore (www.emdmillipore.com), or from the KinomeScan website (www.kinomescan.com), as appropriate. (For a more detailed description of KINOMEscan's assay technology, see: Fabian et al. A small molecule-kinase interaction map for clinical kinase inhibitors. Nat. Biotechnol. 23, 329-336 (2005)). A summary is provided below.
(§2) KinomeScan™ assays (DiscoveRx Corporation, San Diego, Calif., USA) are active-site-directed competition binding assays. […] The amount of kinase captured in test versus control samples is determined by using a qPCR method that detects the associated DNA label on each kinase molecule. Dissociation constants (Kd) for test compound-kinase interactions are calculated by measuring the amount of kinase captured on the solid support as a function of the test compound concentration.

Ret (M918T) = target: T2, Ret (M918T) (Homo sapiens, UniProt P07949, M918T); assay: KinomeScan competition binding assay
T2 construct: purchased DiscoveRx Corporation (KinomeScan service)
Source text: as §1, §2

Ysk4 = target: T3, Ysk4 (Homo sapiens, UniProt Q56UN5); assay: KinomeScan competition binding assay
T3 construct: purchased DiscoveRx Corporation (KinomeScan service)
Source text: as §1, §2

TEK(R849W) = target: T4, TEK(R849W) (Homo sapiens, UniProt Q02763, R849W); assay: KinaseProfiler kinase activity assay; format: biochemical; details: ATP at Km
T4 construct: purchased EMD Millipore Corp. (KinaseProfiler service)
Source text: (§3) A summary is provided below.

TEK(Y897S) = target: T5, TEK(Y897S) (Homo sapiens, UniProt Q02763, Y897S); assay: KinaseProfiler kinase activity assay; format: biochemical; details: ATP at Km
T5 construct: purchased EMD Millipore Corp. (KinaseProfiler service)
Source text: as §3

c-Kit (V560G) = target: T6, c-Kit (V560G) (Homo sapiens, UniProt P10721, V560G); assay: KinaseProfiler kinase activity assay; format: biochemical
T6 construct: purchased EMD Millipore Corp. (KinaseProfiler service)
Procedure: KinaseProfiler™ assays (EMD Millipore Corp. Billerica, Mass., USA) are radioligand binding assays with purified or partially-purified human kinases. Most of the KinaseProfiler™ assays are conducted in 20 mM MOPS, 1 mM EDTA, 0.01% Brij-35, 5% Glycerol, 0.1% b-mercaptoethanol, 1 mg/mL BSA. The assay involves the transfer of ^32P from γ-^32P-ATP to the target peptide, followed by washing and trapping of the labeled peptide on a filter. The concentration of γ-^32P-ATP used was at the established Km for ATP.

[1] = test system: T315I-mutated BCR-ABL1 transduced bone marrow cells; assay: Preclinical CML model, bone marrow cells transduced with T315I-mutated BCR-ABL1; format: in vivo; details: 25 (or 50) mg/Kg twice per day; Balb/c mice
Procedure: 6- to 8 week old male Balb/c mice were sublethally irradiated and i.v. injected with 0.5×10^6 retroviral transduced BM cells (pMSCV_gfp/BCR-ABL_T315I).
Bone marrow donor mice: To harvest donor bone marrow mice were injected subcutaneously with 5-FU (150 mg/kg mice). The bone marrow was isolated five days later and transduced with the desired retroviral construct. [Daley, G. Q., R. A. Van Etten, and D. Baltimore, Induction of chronic myelogenous leukemia in mice by the P210bcr/abl gene of the Philadelphia chromosome. Science, 1990. 247(4944): p. 824-30.]

BaF3/wt-BCR-ABL cells = assay: Subcutaneous BaF3/wt-BCR-ABL tumor model; format: in vivo; details: 25 (or 50) mg/kg twice per day via gavage; NSG mice
Procedure: 6- to 8-week-old male NSG mice were implanted subcutaneously with 1×10^7 BaF3/wt-BCR-ABL or 1×10^7 BaF3/T315I cells per mouse into the right flank. Five days after implantation mice were randomized into groups with a mean volume of approximately 100 mm^3. […] Tumor volume was measured every 2-3 days. Animals were sacrificed at day 12 and tumors embedded for histology.

Abl(M351T) = Abl(M351T) (Homo sapiens, UniProt P00519, M351T); assay: KinomeScan competition binding assay; parameters: purchased DiscoveRx Corporation (KinomeScan service)
Source text: as §1, §2

Abl(Q252H) = Abl(Q252H) (Homo sapiens, UniProt P00519, Q252H); assay: KinomeScan competition binding assay; parameters: purchased DiscoveRx Corporation (KinomeScan service)
Source text: as §1, §2

Abl(Y253F) = Abl(Y253F) (Homo sapiens, UniProt P00519, Y253F); assay: KinomeScan competition binding assay; parameters: purchased DiscoveRx Corporation (KinomeScan service)
Source text: as §1, §2

Flt3 (D835Y) = Flt3 (D835Y) (Homo sapiens, UniProt P36888, D835Y); assay: KinomeScan competition binding assay; parameters: purchased DiscoveRx Corporation (KinomeScan service)
Source text: as §1, §2

Flt3 = Flt3 (Homo sapiens, UniProt P36888); assay: KinomeScan competition binding assay; parameters: purchased DiscoveRx Corporation (KinomeScan service); details: Flt3 wild-type
Source text: as §1, §2

Ret = Ret (Homo sapiens, UniProt P07949); assay: KinomeScan competition binding assay; parameters: purchased DiscoveRx Corporation (KinomeScan service)
Source text: as §1, §2

Ret (V804L) = Ret (V804L) (Homo sapiens, UniProt P07949, V804L); assay: KinomeScan competition binding assay; parameters: purchased DiscoveRx Corporation (KinomeScan service)
Source text: as §1, §2

TEK = TEK (Homo sapiens, UniProt Q02763); assay: KinomeScan competition binding assay; parameters: purchased DiscoveRx Corporation (KinomeScan service)
Source text: as §1, §2

Tyro3 = Tyro3 (Homo sapiens, UniProt Q06418); assay: KinomeScan competition binding assay; parameters: purchased DiscoveRx Corporation (KinomeScan service)
Source text: as §1, §2

Wee1 = Wee1 (Homo sapiens, UniProt P30291); assay: KinomeScan competition binding assay; parameters: purchased DiscoveRx Corporation (KinomeScan service)
Source text: as §1, §2

c-Kit (D816V) = c-Kit (D816V) (Homo sapiens, UniProt P10721, D816V); assay: KinomeScan competition binding assay; parameters: purchased DiscoveRx Corporation (KinomeScan service)
Source text: as §1, §2

c-Kit (D816H) = c-Kit (D816H) (Homo sapiens, UniProt P10721, D816H); assay: KinaseProfiler kinase activity assay; format: biochemical; parameters: purchased EMD Millipore Corp. (KinaseProfiler service)
Procedure: as §3
KinaseProfiler™ assays (EMD Millipore Corp. Billerica, Mass., USA) are […] with purified or partially-purified human kinases. Most of the KinaseProfiler™ assays are conducted in 20 mM MOPS, 1 mM EDTA, 0.01% Brij-35, 5% Glycerol, 0.1% b-mercaptoethanol, 1 mg/mL BSA. The assay involves the transfer of ^32P from γ-^32P-ATP to the target peptide, followed by washing and trapping of the labeled peptide on a filter. The concentration of γ-^32P-ATP used was at the established Km for ATP.

Sequence of c-Kit (D816V) (P10721 26-976 D816V): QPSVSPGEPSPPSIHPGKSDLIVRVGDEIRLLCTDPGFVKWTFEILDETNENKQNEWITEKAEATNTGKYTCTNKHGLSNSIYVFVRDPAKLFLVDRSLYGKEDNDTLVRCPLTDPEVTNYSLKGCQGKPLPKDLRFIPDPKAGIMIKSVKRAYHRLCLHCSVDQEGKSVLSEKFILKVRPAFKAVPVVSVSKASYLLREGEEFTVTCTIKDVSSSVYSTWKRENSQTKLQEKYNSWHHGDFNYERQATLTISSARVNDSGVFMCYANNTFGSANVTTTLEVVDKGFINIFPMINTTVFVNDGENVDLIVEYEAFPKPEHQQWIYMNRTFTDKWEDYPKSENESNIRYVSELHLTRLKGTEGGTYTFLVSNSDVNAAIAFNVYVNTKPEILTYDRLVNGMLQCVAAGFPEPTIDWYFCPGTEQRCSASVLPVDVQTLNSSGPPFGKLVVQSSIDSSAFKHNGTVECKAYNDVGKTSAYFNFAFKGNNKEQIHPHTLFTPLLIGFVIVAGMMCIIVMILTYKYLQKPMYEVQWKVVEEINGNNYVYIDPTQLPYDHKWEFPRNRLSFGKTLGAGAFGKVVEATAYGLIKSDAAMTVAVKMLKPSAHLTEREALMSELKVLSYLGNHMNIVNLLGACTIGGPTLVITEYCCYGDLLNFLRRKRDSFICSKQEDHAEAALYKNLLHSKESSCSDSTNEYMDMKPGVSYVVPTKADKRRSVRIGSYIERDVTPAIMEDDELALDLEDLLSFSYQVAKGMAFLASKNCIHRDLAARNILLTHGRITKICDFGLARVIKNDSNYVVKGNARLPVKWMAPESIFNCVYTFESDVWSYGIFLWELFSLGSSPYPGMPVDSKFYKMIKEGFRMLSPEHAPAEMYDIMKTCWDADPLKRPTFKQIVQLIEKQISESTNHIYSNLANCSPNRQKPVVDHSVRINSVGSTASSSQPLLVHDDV
Sequence of Wee1 (P30291 whole entry): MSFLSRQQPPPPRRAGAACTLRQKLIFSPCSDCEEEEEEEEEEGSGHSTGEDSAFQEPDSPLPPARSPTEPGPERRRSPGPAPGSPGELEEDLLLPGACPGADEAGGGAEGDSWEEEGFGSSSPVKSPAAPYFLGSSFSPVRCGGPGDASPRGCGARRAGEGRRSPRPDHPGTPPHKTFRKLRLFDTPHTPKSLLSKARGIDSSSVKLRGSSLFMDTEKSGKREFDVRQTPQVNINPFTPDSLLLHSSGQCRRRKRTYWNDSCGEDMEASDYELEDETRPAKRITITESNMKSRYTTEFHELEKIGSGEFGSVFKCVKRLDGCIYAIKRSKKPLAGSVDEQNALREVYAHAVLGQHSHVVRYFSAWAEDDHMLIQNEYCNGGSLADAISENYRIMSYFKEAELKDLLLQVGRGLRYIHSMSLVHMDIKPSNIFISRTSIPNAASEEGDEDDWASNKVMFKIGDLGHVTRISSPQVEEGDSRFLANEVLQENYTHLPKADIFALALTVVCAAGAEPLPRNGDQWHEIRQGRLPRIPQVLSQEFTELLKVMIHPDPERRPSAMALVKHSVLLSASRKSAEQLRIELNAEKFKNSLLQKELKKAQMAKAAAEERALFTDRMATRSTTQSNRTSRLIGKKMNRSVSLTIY
Sequence of Ret (P07949 29-1114): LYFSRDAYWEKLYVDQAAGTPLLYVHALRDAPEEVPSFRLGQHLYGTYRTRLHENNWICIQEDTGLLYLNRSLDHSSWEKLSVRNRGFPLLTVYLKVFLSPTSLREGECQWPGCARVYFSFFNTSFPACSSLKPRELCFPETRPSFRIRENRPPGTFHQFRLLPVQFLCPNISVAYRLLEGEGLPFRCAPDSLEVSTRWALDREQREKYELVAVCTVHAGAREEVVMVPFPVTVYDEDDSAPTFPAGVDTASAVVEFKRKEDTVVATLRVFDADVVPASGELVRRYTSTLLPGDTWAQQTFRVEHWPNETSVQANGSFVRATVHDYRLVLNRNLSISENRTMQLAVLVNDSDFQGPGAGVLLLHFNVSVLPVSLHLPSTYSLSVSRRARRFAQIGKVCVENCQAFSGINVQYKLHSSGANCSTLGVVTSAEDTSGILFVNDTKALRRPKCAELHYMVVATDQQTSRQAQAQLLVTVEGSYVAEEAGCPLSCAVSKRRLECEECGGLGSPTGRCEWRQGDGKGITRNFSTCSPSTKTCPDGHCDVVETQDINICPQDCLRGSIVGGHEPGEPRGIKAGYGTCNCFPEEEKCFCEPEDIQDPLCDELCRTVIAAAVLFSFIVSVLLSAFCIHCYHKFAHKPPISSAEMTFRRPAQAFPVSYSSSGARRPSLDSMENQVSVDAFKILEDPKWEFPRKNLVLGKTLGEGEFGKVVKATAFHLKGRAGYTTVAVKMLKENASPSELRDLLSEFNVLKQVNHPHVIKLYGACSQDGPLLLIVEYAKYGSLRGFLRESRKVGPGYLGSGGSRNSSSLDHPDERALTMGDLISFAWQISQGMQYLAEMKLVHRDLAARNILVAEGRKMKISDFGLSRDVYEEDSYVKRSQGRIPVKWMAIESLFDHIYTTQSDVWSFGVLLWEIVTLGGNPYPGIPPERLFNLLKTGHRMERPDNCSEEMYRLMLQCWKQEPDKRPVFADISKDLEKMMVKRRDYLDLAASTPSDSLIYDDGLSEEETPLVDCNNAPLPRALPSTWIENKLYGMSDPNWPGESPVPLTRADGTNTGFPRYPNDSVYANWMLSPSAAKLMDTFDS
T2 sequence (P07949 29-1114 M918T): as the sequence (P07949 29-1114) above, with M890T counted along it
T4 sequence (Q02763 23-1124 R849W): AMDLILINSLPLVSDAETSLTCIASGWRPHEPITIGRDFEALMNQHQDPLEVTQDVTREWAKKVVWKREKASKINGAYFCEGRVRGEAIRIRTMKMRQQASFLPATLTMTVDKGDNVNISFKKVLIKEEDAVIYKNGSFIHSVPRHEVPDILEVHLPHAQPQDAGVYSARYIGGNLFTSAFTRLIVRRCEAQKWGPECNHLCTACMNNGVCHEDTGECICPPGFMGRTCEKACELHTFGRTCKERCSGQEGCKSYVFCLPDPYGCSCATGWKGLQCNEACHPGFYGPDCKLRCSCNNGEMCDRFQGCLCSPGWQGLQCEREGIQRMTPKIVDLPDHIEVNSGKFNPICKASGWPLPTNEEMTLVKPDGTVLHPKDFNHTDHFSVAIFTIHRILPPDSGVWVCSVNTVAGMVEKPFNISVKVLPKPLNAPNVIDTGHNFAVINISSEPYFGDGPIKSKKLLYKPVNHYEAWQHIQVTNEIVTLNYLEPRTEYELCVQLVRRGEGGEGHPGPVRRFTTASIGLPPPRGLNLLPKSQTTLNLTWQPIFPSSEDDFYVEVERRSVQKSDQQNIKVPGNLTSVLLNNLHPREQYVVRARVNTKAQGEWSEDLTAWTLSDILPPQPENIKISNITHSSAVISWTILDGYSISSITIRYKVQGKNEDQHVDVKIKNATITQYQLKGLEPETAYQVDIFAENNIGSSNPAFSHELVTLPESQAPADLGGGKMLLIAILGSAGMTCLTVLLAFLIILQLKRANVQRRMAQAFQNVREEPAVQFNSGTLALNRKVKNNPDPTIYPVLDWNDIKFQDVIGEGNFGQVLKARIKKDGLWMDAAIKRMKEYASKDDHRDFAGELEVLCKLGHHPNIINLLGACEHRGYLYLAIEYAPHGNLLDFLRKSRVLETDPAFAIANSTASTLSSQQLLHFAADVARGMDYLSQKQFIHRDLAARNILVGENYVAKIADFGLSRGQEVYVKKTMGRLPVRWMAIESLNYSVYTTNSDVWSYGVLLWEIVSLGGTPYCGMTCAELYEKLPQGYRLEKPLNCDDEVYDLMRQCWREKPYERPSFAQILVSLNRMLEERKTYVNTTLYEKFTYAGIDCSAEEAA
Sequence of Tyro3 (Q06418 41-890): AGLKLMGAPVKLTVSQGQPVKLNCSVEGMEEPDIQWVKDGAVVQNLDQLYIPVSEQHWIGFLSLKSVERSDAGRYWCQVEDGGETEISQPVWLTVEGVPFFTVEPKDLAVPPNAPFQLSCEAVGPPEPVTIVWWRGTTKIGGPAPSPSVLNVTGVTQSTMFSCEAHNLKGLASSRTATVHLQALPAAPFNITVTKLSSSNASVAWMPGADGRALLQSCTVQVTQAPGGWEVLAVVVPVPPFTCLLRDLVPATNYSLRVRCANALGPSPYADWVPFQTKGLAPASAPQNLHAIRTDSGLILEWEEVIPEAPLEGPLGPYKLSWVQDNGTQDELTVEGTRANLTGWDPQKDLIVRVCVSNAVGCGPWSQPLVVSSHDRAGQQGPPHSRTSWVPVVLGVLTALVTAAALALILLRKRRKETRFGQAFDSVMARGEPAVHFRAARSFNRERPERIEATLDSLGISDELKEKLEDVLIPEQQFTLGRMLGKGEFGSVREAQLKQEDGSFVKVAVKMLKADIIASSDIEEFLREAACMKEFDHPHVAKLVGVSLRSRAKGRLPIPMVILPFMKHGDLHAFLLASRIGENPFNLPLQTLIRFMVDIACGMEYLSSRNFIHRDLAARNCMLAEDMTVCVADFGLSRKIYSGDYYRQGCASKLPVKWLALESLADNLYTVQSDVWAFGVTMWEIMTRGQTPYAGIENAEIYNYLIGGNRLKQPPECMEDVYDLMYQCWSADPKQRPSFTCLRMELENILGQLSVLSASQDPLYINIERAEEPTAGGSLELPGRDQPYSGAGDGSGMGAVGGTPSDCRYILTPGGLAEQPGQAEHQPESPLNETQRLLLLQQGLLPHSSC
T5 sequence (Q02763 23-1124 Y897S): as the sequence (Q02763 23-1124 R849W) above, with W827R, Y875S counted along it
T6 sequence (P10721 26-976 V560G): as the sequence (P10721 26-976 D816V) above, with V535G, V791D counted along it
Sequence of c-Kit (D816H) (P10721 26-976 D816H): as the sequence (P10721 26-976 D816V) above, with V791H counted along it
Sequence of TEK (Q02763 23-1124): as the sequence (Q02763 23-1124 R849W) above, with W827R counted along it
Sequence of Ret (V804L) (P07949 29-1114 V804L): as the sequence (P07949 29-1114) above, with V776L counted along it

`Nc1nc(Nc2ccc3c(c2)CC[C@@H](N2CCCC2)CC3)nn1-c1cc2c(nn1)-c1ccccc1CCC2` [Compound A, 1-(6,7-dihydro-5H-benzo[6,7]cyclohepta[1,2-c]pyridazine-3-yl)-N^3-(7-(S)-(pyrrolidin-1-yl)-6,7,8,9-tetrahydro-5H-benzo[7]annulene-2-yl)-1H-1,2,4-triazole-3,5-diamine] was tested, and the Kd (Flt3 (D835H)) was 8.4 nM, the Kd (Ret (M918T)) was 30 nM and the Kd (Ysk4) was 1.6 nM. For the same molecule, the IC50 (TEK(R849W)) was 22 nM, the IC50 (TEK(Y897S)) was 13 nM and the IC50 (c-Kit (V560G)) was 45 nM. For the same molecule, the leukemia cell burden [1] was “reduced leukemia cell burden”, the “inhibition of wild type CML in vivo (tumor volume)” value (BaF3/wt-BCR-ABL cells) was “potentially inhibits” and the Kd (Abl(M351T)) was 104 nM. The Kd (Abl(Q252H)) was 112 nM, the Kd (Abl(Y253F)) was 18 nM and the Kd (Flt3 (D835Y)) was 11.2 nM. For the same molecule, the Kd (Flt3) was 50 nM, the Kd (Ret) was 73 nM and the Kd (Ret (V804L)) was 90 nM. For the same molecule, the Kd (TEK) was 270 nM, the Kd (Tyro3) was > 1000 nM and the Kd (Wee1) was 17 nM. The Kd (c-Kit (D816V)) was 10.2 nM and the IC50 (c-Kit (D816H)) was 8 nM.
